Experiments:
[1] = rat PK, in-house experiment; details: in vivo
[2] = in vivo rat oral dose study: metabolism, excretion and disposition (plasma, tissues, urine, bile; UV/mass integration)
Experimental: The in vivo rat studies were performed following the administration of a 30 mg/kg dose of AE90015. Plasma, urine, and tissue samples were collected from two rats in a metabolic cage, and bile samples were collected from two bile duct-cannulated rats. The urine and bile samples were collected from 0 to 24 h post-administration. The tissues and plasma samples were collected at 24 h post-administration. This study was carried out to explore all metabolites, particularly the phase II metabolites, and to identify the metabolites being excreted and understand their excretion pathways. Additionally, determining whether AE90015 itself is directly cleared through urine and bile is crucial for explaining its pharmacokinetic clearance value in rats.
For quantification, a photodiode array detector connected to UPLC in parallel to the LTQ-Obitrap mass spectrometer, detecting at 260 nm absorption, and combined with mass response was used to quantitatively measure, sometimes with compromised accuracy, the metabolites and AE90015 in all of the samples. For well-separated metabolites in the liquid chromatogram, their UV 260 nm absorption peak integration represented their molar response. When the metabolites’ UV peaks overlap with each other, UV integration is not feasible, but the integration of extracted metabolite mass is much easier. […] It was assumed that each metabolite’s UV integration-to-mass integration ratio is equal, allowing for a good approximation within the same category of metabolites. This assumption was validated by many of the metabolites measured in this study and previous studies. When no UV integration is available, multiplying the mass integration by the […] yielded in the UV integration.
The distribution of normalized integration values for the parent drug AE90015 and its metabolites in plasma, urine, bile, and tissues, including liver, brain, and kidney, is summarized in Table 1. […] In this experiment, all amounts of AE90015 and its metabolites in the plasma, urine, and bile samples were obtained from UV responses, which were adjusted to their total volume in the rat. For the liver, brain, and kidney tissues, these amounts were normalized to tissue weight. The sample dilution factors used in the analysis were also converted back.
The values in Table 1 represent the relative molar amounts of each metabolite of AE90015 remaining in the plasma and tissues or excreted in urine or bile 24 h post-dose. These values were derived either directly from UV 260 nm integration or from mass response integration, multiplied by the UV/mass ratio for each metabolite category, and further adjusted to plasma, urine volume, or tissue weight. The details of the calculation methods are provided in Section 3.
Two rats weighing 0.266 and 0.252 kg received 30 mg/kg oral doses of AE90015, formulated with hydroxypropyl-beta-cyclodextrin, for the bile collection study, which was carried out for 0–24 h, and a total of 33.6 mL of bile was pooled together from the 2 rats. The two rats used for the bile collection study underwent bile duct cannulation surgery 2 days before the AE90015 dosing and bile collection. Before the surgery, the rats were anesthetized with ketamine (43 mg/kg body weight) and xylazine (8.7 mg/kg body weight). After surgical skin preparation, two catheters (intestinal and biliary) were passed subcutaneously from the dorsal scapular region into the abdomen. Through ventral midline abdominal incision, the bile duct was isolated and ligated, and the biliary catheter was inserted into the bile duct and secured. The intestinal catheter tip was placed into the duodenum just distal to the entry point of the bile duct and secured by the placement of a purse string suture. […]

human mGlu5 receptor = system: human mGlu5 receptor; parameters: method as in PMID 34469715; details: NAM; cited from earlier work
mGlu1 = details: cited from earlier work
mGlu2 = details: cited from earlier work
mGlu3 = details: cited from earlier work
mGlu4 = details: cited from earlier work
mGlu7 = details: cited from earlier work
79 other targets = details: cited from earlier work
[3] = rats (n = 2), 24 h after 30 mg/kg oral, % of all AE90015-related material

clearance [1]: 38 mL/min/kg
Excrete from Bile, normalized relative molar amount ([2]; bile duct-cannulated rats (n = 2), bile 0-24 h after 30 mg/kg oral, % of all AE90015-related material): 0.39%
share of total clearance by mono-oxidation (primary clearance pathway) ([2]; rat, 30 mg/kg oral, 24 h): 96%
direct excretion via renal and bile routes ([2]; rat, 30 mg/kg oral, 24 h, unchanged parent): 0.5%
Remain in Brain, normalized relative molar amount [2, 3]: 0.66%
Remain in Kidney, normalized relative molar amount [2, 3]: 0.16%
Remain in Liver, normalized relative molar amount [2, 3]: 0.98%
Remain in Plasma, normalized relative molar amount [2, 3]: 1.47%
Excrete from Urine, normalized relative molar amount ([2]; rats (n = 2), urine 0-24 h after 30 mg/kg oral, % of all AE90015-related material): 0.10%
SMILES: Cc1cncc(C(=O)NC23CC4CC(CC(NC(=O)c5ccccn5)(C4)C2)C3)n1 [AE90015]
affinity (human mGlu5 receptor): 18.5 nM
efficacy or affinity for mGlu1 (mGlu1): no significant efficacy or affinity
efficacy or affinity for mGlu2 (mGlu2): no significant efficacy or affinity
efficacy or affinity for mGlu3 (mGlu3): no significant efficacy or affinity
efficacy or affinity for mGlu4 (mGlu4): no significant efficacy or affinity
efficacy or affinity for mGlu7 (mGlu7): no significant efficacy or affinity
selectivity for mGlu5, preference compared to the 79 other targets tested (79 other targets): over 1000 fold

Source: paper PMC11643612, “Insights into the Metabolism, Disposition, and Quantitative Profile of mGlu5 NAM AE90015 with Metabolite Identification and a Novel Integration Method” (Molecules, 2024)
